Legend:
[1] = tested on: ketamine-induced psychological disturbances in adults scheduled for elective noncardiac surgery; assay: Pilot randomized, double-blind trial of lamotrigine before surgery with ketamine anesthesia; format: in vivo, human
Excerpt: We report the finding of a pilot randomized and double-blind trial in which we tested the hypothesis that a single 300-mg dose of lamotrigine given a few hours before surgery reduces ketamine-induced psychological disturbances. We enrolled 46 adults (23 Lamotrigine, 23 placebo) 18-65 years who were scheduled for elective noncardiac surgery with general anesthesia with a planned overnight stay at Cleveland Clinic main campus between April 2019 and October 2019. All included patients provided written informed consent during their preoperative clinic visit. The trial was approved by Cleveland Clinic Institutional Review Board and was registered at clinicaltrails.gov [NCT03831854; PI Kamal Maheshwari; February 2019]. It was a priori defined as a pilot trial.
All patients received ketamine 1 mg/kg bolus at induction of anesthesia followed by a 5-μg/kg/min infusion which was stopped at the end of surgery. Anesthesia generally included propofol, a muscle relaxant, fentanyl, and sevoflurane. The primary outcome was presence of the psychologic disturbances measured 30-90 min after admission to the post-anesthesia care unit. We evaluated four key items of the Brief Psychiatric Rating Scale corresponding to positive symptoms of schizophrenia: conceptual disorganization, hallucinatory behavior, suspiciousness, and unusual thought content. Each symptom was rated 1-7 (1=not present, 2=very mild, 3=mild, 4=moderate, 5=moderately severe, 6=severe, 7=extremely severe). Secondary outcomes were opioid use, pain, and postoperative nausea or vomiting in the post-anesthesia care unit.

[2] = tested on: psychologic disturbances associated with perioperative ketamine use; settings: reported range across studies (Avidan et al. 2017); cited from earlier work
[3] = tested on: ketamine-induced perceptual abnormalities in healthy subjects; settings: 300 mg oral lamotrigine; cited from earlier work

SMILES | patients who displayed psychologic disturbances ([1]; all trial patients (lamotrigine and placebo groups), moderate dose of ketamine: 1 mg/kg bolus then 5-μg/kg/min infusion) [%] | incidence of psychologic disturbances associated with perioperative ketamine use [2] | pain scores, difference in means lamotrigine vs placebo ([1]; 98.3% CI −1.7, 2.6, P=0.58) | Opioid use, median difference lamotrigine vs placebo ([1]; 98.3% CI −9.5, 5.0, P=0.63) | pain scores, mean±standard deviation ([1]; in the post-anesthesia care unit, lamotrigine 300 mg patients) | patients who experienced nausea or vomiting ([1]; in vivo) | patients with psychologic disturbances (four key items of the Brief Psychiatric Rating Scale) ([1]; single 300-mg dose of lamotrigine a few hours before surgery, ketamine 1 mg/kg bolus then 5-μg/kg/min infusion, measured 30-90 min after admission to post-anesthesia care unit, n=23) | effect on ketamine-induced perceptual abnormalities [3]
CNC1(c2ccccc2Cl)CCCCC1=O (centres unmarked) [ketamine] | 6 | 7% to 27 | – | – | – | – | – | –
Nc1nnc(-c2cccc(Cl)c2Cl)c(N)n1 [lamotrigine] | – | – | 0.5 | −2.3 | 4.9±3.1 | Five | No patients | significantly decreased
